Laboratory results from ChEMBL document CHEMBL2062444, “The Rhodadyns, a New Class of Small Molecule Inhibitors of Dynamin GTPase Activity” (ACS Med Chem Lett, 2012).
Active and inactive are the calls of the source.

What was measured:
[1] = Inhibition of sheep dynamin 1 GTPase activity after 30 mins by malachite-green method; set-up: species or system Ovis aries
Dynamin-1 (Homo sapiens) = target: T1, Dynamin-1 (Homo sapiens) (UniProt Q05193); assay: Inhibition of dynamin1-mediated endocytosis in human U2OS cells assessed as inhibition of Texas red-Tf uptake incubated up to 300 uM for 30 mins prior to Texas red-Tf addition measured after 8 mins by receptor-mediated endocytosis assay; type: cell-based
T1 sequence (whole entry): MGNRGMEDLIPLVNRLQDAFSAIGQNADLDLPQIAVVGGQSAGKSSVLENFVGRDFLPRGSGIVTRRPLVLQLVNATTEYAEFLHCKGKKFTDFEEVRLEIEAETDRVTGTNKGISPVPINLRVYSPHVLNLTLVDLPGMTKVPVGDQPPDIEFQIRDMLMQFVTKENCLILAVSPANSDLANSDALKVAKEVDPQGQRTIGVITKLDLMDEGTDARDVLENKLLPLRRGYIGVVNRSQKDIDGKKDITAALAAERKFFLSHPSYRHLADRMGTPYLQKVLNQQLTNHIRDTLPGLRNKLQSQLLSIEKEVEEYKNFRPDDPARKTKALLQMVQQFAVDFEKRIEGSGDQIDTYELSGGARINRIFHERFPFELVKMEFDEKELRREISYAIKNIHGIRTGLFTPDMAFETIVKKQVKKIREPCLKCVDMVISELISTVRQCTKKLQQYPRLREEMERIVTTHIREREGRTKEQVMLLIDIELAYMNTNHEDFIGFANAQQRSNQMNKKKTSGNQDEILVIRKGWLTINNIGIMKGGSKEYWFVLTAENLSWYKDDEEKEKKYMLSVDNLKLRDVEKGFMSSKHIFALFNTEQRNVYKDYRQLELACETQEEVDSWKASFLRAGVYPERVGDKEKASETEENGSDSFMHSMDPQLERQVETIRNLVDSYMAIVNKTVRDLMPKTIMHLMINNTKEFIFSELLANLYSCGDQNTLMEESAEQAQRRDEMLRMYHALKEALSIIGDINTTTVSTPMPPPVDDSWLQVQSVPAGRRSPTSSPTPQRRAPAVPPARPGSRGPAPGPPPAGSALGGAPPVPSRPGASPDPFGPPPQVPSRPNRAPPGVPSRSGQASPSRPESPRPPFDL

Homo sapiens = species: Homo sapiens; assay: Inhibition of clathrin at 100 uM
Ovis aries = species: Ovis aries; assay: Inhibition of sheep dynamin 1 GTPase activity up to 300 uM after 30 mins by malachite-green method

Row | IC50 [1] [µM] | inhibition (Dynamin-1 (Homo sapiens)) | inhibition (Homo sapiens) | inhibition (Ovis aries) | SMILES
1 | 31 | inactive | inactive | – | C=CCN1C(=O)/C(=C/c2cc(Cl)cc(Cl)c2)SC1=S
2 | 24 | – | inactive | – | O=C1NC(=S)S/C1=C\c1coc2c(Cl)cc(Cl)cc2c1=O
3 | – | – | inactive | inactive | O=C1NC(=S)S/C1=C\c1ccc(-c2ccccc2)cc1
4 | – | – | inactive | inactive | O=C(O)CCN1C(=O)/C(=C/c2cnc3ccccc3n2)SC1=S
5 | 134 | – | inactive | – | O=C1/C(=C/c2ccc(Br)cc2)SC(=S)N1Cc1ccccc1
6 | 48 | inactive | inactive | – | O=C(O)CCN1C(=O)/C(=C/c2csc3ccc(Cl)cc23)SC1=S
7 | – | – | inactive | inactive | C=CCN1C(=O)/C(=C/C2=Cc3ccccc3OC2)SC1=S
8 | 43 | inactive | inactive | – | O=C1NC(=S)S/C1=C\c1cnc2ccccc2n1
9 | – | – | inactive | inactive | O=C1/C(=C/c2ccc(-c3ccccc3)cc2)SC(=S)N1Cc1ccccc1
10 | – | – | inactive | inactive | O=C1/C(=C/c2ccc3nsnc3c2)SC(=S)N1Cc1ccccc1
11 | 3.6 | – | inactive | – | C=CCN1C(=O)/C(=C/c2ccc(OCCCN(C)C)cc2)SC1=S
12 | > 100 | – | inactive | – | C=CCN1C(=O)/C(=C/c2coc3c(Cl)cc(Cl)cc3c2=O)SC1=S
13 | – | – | inactive | inactive | O=C1NC(=S)S/C1=C\c1ccc2nsnc2c1
14 | 22 | inactive | inactive | – | CN(C)CCCOc1ccc(/C=C2\SC(=S)N(Cc3ccccc3)C2=O)cc1
15 | – | – | inactive | inactive | CCN1C(=O)/C(=C/c2cnc3ccccc3n2)SC1=S
16 | 6.4 | – | inactive | – | CCN1C(=O)/C(=C/c2ccc(OCCCN(C)C)cc2)SC1=S
17 | – | – | inactive | inactive | C=CCN1C(=O)/C(=C/c2ccc(-c3ccccc3)cc2)SC1=S
18 | 9 | – | inactive | – | O=C(O)CCN1C(=O)/C(=C/c2ccc(Br)cc2)SC1=S
19 | 53 | – | inactive | – | O=C1/C(=C/c2ccc3nonc3c2)SC(=S)N1Cc1ccccc1
20 | – | – | inactive | inactive | O=C(O)CCN1C(=O)/C(=C/c2ccc3nonc3c2)SC1=S

Row | IC50 [1] [µM] | inhibition (Dynamin-1 (Homo sapiens)) | inhibition (Homo sapiens) | inhibition (Ovis aries) | SMILES
21 | > 100 | – | inactive | – | O=C(O)CN1C(=O)/C(=C/c2ccc(Br)cc2)SC1=S
22 | 12.3 | – | inactive | – | O=C(O)CN1C(=O)/C(=C/c2csc3ccc(Cl)cc23)SC1=S
23 | 3.1 | inactive | inactive | – | CCN1C(=O)/C(=C/c2cc(Cl)cc(Cl)c2)SC1=S
24 | 4.4 | inactive | inactive | – | O=C(O)CCN1C(=O)/C(=C/c2cc(Cl)cc(Cl)c2)SC1=S
25 | 10 | – | inactive | – | O=C(O)CCN1C(=O)/C(=C/c2coc3c(Cl)cc(Cl)cc3c2=O)SC1=S
26 | > 100 | – | inactive | – | O=C(O)CN1C(=O)/C(=C/c2cnc3ccccc3n2)SC1=S
27 | – | – | inactive | inactive | CCN1C(=O)/C(=C/c2ccc3nsnc3c2)SC1=S
28 | 23.5 | – | inactive | – | O=C(O)CCN1C(=O)/C(=C/C2=Cc3ccccc3OC2)SC1=S
29 | 50 | inactive | inactive | – | O=C1/C(=C/c2cc(Cl)cc(Cl)c2)SC(=S)N1Cc1ccccc1
30 | – | – | inactive | inactive | O=C(O)CN1C(=O)/C(=C/C2=Cc3ccccc3OC2)SC1=S
31 | – | – | inactive | inactive | C=CCN1C(=O)/C(=C/c2ccc3nsnc3c2)SC1=S
32 | – | – | inactive | inactive | C=CCN1C(=O)/C(=C/c2csc3ccc(Cl)cc23)SC1=S
33 | 5.5 | – | inactive | – | O=C1NC(=S)S/C1=C\c1csc2ccc(Cl)cc12
34 | – | – | inactive | inactive | O=C1/C(=C/C2=Cc3ccccc3OC2)SC(=S)N1Cc1ccccc1
35 | – | – | inactive | inactive | O=C(O)CN1C(=O)/C(=C/c2ccc3nonc3c2)SC1=S
36 | 7.5 | – | inactive | – | O=C1NC(=S)S/C1=C\c1cc(Cl)cc(Cl)c1
37 | – | – | inactive | inactive | C=CCN1C(=O)/C(=C/c2ccc3nonc3c2)SC1=S
38 | – | – | inactive | inactive | CCN1C(=O)/C(=C/c2csc3ccc(Cl)cc23)SC1=S
39 | 7.4 | – | inactive | – | O=C1/C(=C/c2coc3c(Cl)cc(Cl)cc3c2=O)SC(=S)N1Cc1ccccc1
40 | – | – | inactive | inactive | O=C1/C(=C/c2csc3ccc(Cl)cc23)SC(=S)N1Cc1ccccc1

Row | IC50 [1] [µM] | inhibition (Dynamin-1 (Homo sapiens)) | inhibition (Homo sapiens) | inhibition (Ovis aries) | SMILES
41 | – | – | inactive | inactive | CCN1C(=O)/C(=C/c2ccc3nonc3c2)SC1=S
42 | 7.4 | – | inactive | – | O=C1NC(=S)S/C1=C\c1ccc2nonc2c1
43 | 42 | – | inactive | – | O=C(O)CCN1C(=O)/C(=C/c2ccc(-c3ccccc3)cc2)SC1=S
44 | 90 | – | inactive | – | O=C1NC(=S)S/C1=C\C1=Cc2ccccc2OC1
45 | 5.5 | inactive | inactive | – | O=C(O)CN1C(=O)/C(=C/c2cc(Cl)cc(Cl)c2)SC1=S
46 | – | – | inactive | inactive | CN(C)CCCOc1ccc(/C=C2\SC(=S)N(CC(=O)O)C2=O)cc1
47 | – | – | inactive | inactive | CN(C)CCCOc1ccc(/C=C2\SC(=S)NC2=O)cc1
48 | – | – | inactive | inactive | CCN1C(=O)/C(=C/c2ccc(Br)cc2)SC1=S
49 | 5.1 | – | inactive | – | CCN1C(=O)/C(=C/c2coc3c(Cl)cc(Cl)cc3c2=O)SC1=S
50 | – | – | inactive | inactive | C=CCN1C(=O)/C(=C/c2ccc(Br)cc2)SC1=S
51 | – | – | inactive | inactive | CCN1C(=O)/C(=C/C2=Cc3ccccc3OC2)SC1=S
52 | – | – | inactive | inactive | O=C(O)CN1C(=O)/C(=C/c2ccc3nsnc3c2)SC1=S
53 | – | – | inactive | inactive | O=C1NC(=S)S/C1=C\c1ccc(Br)cc1
54 | – | – | inactive | inactive | C=CCN1C(=O)/C(=C/c2cnc3ccccc3n2)SC1=S
55 | 3.4 | – | inactive | – | O=C(O)CN1C(=O)/C(=C/c2coc3c(Cl)cc(Cl)cc3c2=O)SC1=S
56 | – | – | inactive | inactive | O=C1/C(=C/c2cnc3ccccc3n2)SC(=S)N1Cc1ccccc1
57 | > 100 | – | inactive | – | O=C(O)CCN1C(=O)/C(=C/c2ccc3nsnc3c2)SC1=S
58 | – | – | inactive | inactive | CCN1C(=O)/C(=C/c2ccc(-c3ccccc3)cc2)SC1=S
59 | – | – | inactive | – | CN(C)CCCOc1ccc(/C=C2\SC(=S)N(CCC(=O)O)C2=O)cc1

Row | SMILES | IC50 [1] [µM] | inhibition (Dynamin-1 (Homo sapiens)) | inhibition (Homo sapiens) | inhibition (Ovis aries)
60 | O=C(O)CN1C(=O)/C(=C/c2ccc(-c3ccccc3)cc2)SC1=S | 73 | – | inactive | –
